Source: patent publication US8785457B2 (Cellzome Limited, priority 2009, dated 2014)

Tested on: cytokine levels (TNFα, IL-2, IFNγ and IL-4)
Assay: Anti-CD3 induced cytokine release in the mouse
Assay type: in vivo
Settings: 100 mg/kg p.o. 30 minutes before anti-CD3, blood 90 minutes after anti-CD3, compared to control group 2
Method: In this mouse model, T cells and NK cells were activated in situ by the intraperitoneal (i.p.) injection of an anti-CD3 antibody into mice that had been pre-treated for 30 minutes with certain compounds of the invention (100 mg/kg po administration). Blood samples were collected 90 minutes after anti-CD3 injection. Plasma samples were prepared and the cytokine levels (Tumor Necrosis factor alpha (TNFα), Interleukin-2 (IL-2), Interferon-gamma (IFNγ) and Interleukin-4 (IL-4)) were measured using a Cytometric Bead Array method.
A single dose of test compound was administered p.o. 30 minutes before anti-CD3 injection. 90 minutes after anti-CD3 injection blood samples were collected for cytokine analysis (approximately 400 μl whole blood anti-coagulated with Na-heparin) and stored frozen until use.
The cytokine measurement was done using the mouse Cytometric Bead Array (CBA) Th1/Th2 kit (BD Biosciences, San Diego, Calif., USA; catalogue number 551287) according to the manufacturer's instruction with the following modifications: all reagents were downscaled by a factor of 2 and the mixture of plasma, beads and detection reagents was done in 96-U-bottom plates. Standards and samples were acquired on a FACSCalibur® instrument (Becton Dickinson) using an HTS plate loader. Data were analysed with the CBA Software provided by Becton Dickinson which draws standard curves and converts mean fluorescence values into concentration values (pg/ml).
Animals: male C57BL/6J mice, 9 weeks old (Janvier, Le Genest St Isle, France).
Test compounds were dosed orally (p.o.) at 100 mg/kg (vehicle: 0.5% CMC, application volume 10 ml/kg).
Anti-CD3 antibody (BD Bioscience, catalogue number 553057): 200 μl of a 10 μg/ml solution in PBS were applied i.p. (2 μg per mouse).

CCOC(=O)N1Cc2nc(-c3ccc(NC(=O)NC4CC4)cc3F)nc(N3CCOC[C@@H]3C)c2C1 [Example 131, (S)-ethyl 2-(4-(3-cyclopropylureido)-2-fluorophenyl)-4-(3-methylmorpholino)-5H-pyrrolo[3,4-d]pyrimidine-6(7H)-carboxylate]
reduction: IFNγ plasma levels | IL-2 plasma levels | IL-4 plasma levels | TNFα plasma levels
